# Assay results published in US9149038B2, “4-amino-6-(heterocyclic)picolinates and 6-amino-2-(heterocyclic)pyrimidine-4-carboxylates and their use as herbicides” (Dow AgroSciences LLC, priority 2013, dated 2015).
# Like-named read-outs stand apart in the source and are kept apart here.
# Key:
# [1] = tested on: Key Broadleaf Weed and Crop Species; assay: Post-Emergent Test II: postemergent herbicidal activity, visual rating after 14 d (Table 7); type: in vivo; conditions: post-emergence, 336 h; for pest or weed control at 35 g/ha: 35 g ai/ha; for pest or weed control at 70 g/ha: 70 g ai/ha; for pest or weed control at 140 g/ha: 140 g ai/ha
# How it was run: (§1)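 Scoring is visual, 0-100, at 14 d after application, comparing treated with untreated plants. Application: overhead track spray at 187 L/ha onto seedlings at 1-2 true leaves, in surfactant/crop-oil carrier.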
# [2] = tested on: Key Grass and Sedge Weeds as well as Grass Crops; assay: Post-Emergent Test II: postemergent herbicidal activity, visual rating after 14 d (Table 8); type: in vivo; conditions: post-emergence, 336 h; for pest or weed control at 35 g/ha: 35 g ai/ha; for pest or weed control at 70 g/ha: 70 g ai/ha; for pest or weed control at 140 g/ha: 140 g ai/ha
# How it was run: as §1
# [3] = ABUTH: velvetleaf (Abutilon theophrasti), read-out: Visual Growth Reduction (%) 14 Days After Application ABUTH
# [4] = AMARE: redroot pigweed (Amaranthus retroflexus), read-out: Visual Growth Reduction (%) 14 Days After Application AMARE
# [5] = BRSNN: oilseed rape, canola (Brassica napus), read-out: Visual Growth Reduction (%) 14 Days After Application BRSNN
# [6] = CHEAL: lambsquarters (Chenopodium album), read-out: Visual Growth Reduction (%) 14 Days After Application CHEAL
# [7] = EPHHL: wild poinsettia (Euphorbia heterophylla), read-out: Visual Growth Reduction (%) 14 Days After Application EPHHL
# [8] = HELAN: sunflower (Helianthus annuus), read-out: Visual Growth Reduction (%) 14 Days After Application HELAN
# [9] = barnyardgrass (Echinochloa crus-galli), read-out: Visual Growth Reduction (%) 14 Days After Application, ECHCG
# [10] = giant foxtail (Setaria faberi), read-out: Visual Growth Reduction (%) 14 Days After Application, SETFA
# [11] = maize, corn (Zea mays), read-out: Visual Growth Reduction (%) 14 Days After Application, ZEAMX
# [12] = rice (Oryza sativa), read-out: Visual Growth Reduction (%) 14 Days After Application, ORYSA
# [13] = wheat, spring (Triticum aestivum), read-out: Visual Growth Reduction (%) 14 Days After Application, TRZAS
# [14] = yellow nutsedge (Cyperus esculentus), read-out: Visual Growth Reduction (%) 14 Days After Application, CYPES
compound,measurement,setting,value
Nc1cc(-c2c(F)ccc3c2OC(F)(F)O3)nc(C(=O)O)c1Cl [Compound 91],pest or weed control at 35 g/ha,[1]; [3],60 to 74%
same,pest or weed control at 70 g/ha,[1]; [3],75 to 84%
same,pest or weed control at 140 g/ha,[1]; [3],75 to 84%
same,pest or weed control at 35 g/ha,[1]; [4],95 to 100%
same,pest or weed control at 70 g/ha,[1]; [4],95 to 100%
same,pest or weed control at 140 g/ha,[1]; [4],95 to 100%
same,pest or weed control at 35 g/ha,[1]; [5],0 to 29%
same,pest or weed control at 70 g/ha,[1]; [5],45 to 59%
same,pest or weed control at 140 g/ha,[1]; [5],60 to 74%
same,pest or weed control at 35 g/ha,[1]; [6],95 to 100%
same,pest or weed control at 70 g/ha,[1]; [6],95 to 100%
same,pest or weed control at 140 g/ha,[1]; [6],95 to 100%
same,pest or weed control at 35 g/ha,[1]; [7],0 to 29%
same,pest or weed control at 70 g/ha,[1]; [7],0 to 29%
same,pest or weed control at 140 g/ha,[1]; [7],0 to 29%
same,pest or weed control at 35 g/ha,[1]; [8],0 to 29%
same,pest or weed control at 70 g/ha,[1]; [8],0 to 29%
same,pest or weed control at 140 g/ha,[1]; [8],0 to 29%
same,pest or weed control at 35 g/ha,[2]; [9],0 to 29%
same,pest or weed control at 70 g/ha,[2]; [9],0 to 29%
same,pest or weed control at 140 g/ha,[2]; [9],0 to 29%
same,pest or weed control at 35 g/ha,[2]; [10],0 to 29%
same,pest or weed control at 70 g/ha,[2]; [10],0 to 29%
same,pest or weed control at 140 g/ha,[2]; [10],0 to 29%
same,pest or weed control at 35 g/ha,[2]; [11],0 to 29%
same,pest or weed control at 70 g/ha,[2]; [11],0 to 29%
same,pest or weed control at 140 g/ha,[2]; [11],0 to 29%
same,pest or weed control at 35 g/ha,[2]; [12],0 to 29%
same,pest or weed control at 70 g/ha,[2]; [12],0 to 29%
same,pest or weed control at 140 g/ha,[2]; [12],0 to 29%
same,pest or weed control at 35 g/ha,[2]; [13],0 to 29%
same,pest or weed control at 70 g/ha,[2]; [13],0 to 29%
same,pest or weed control at 140 g/ha,[2]; [13],0 to 29%
same,pest or weed control at 35 g/ha,[2]; [14],0 to 29%
same,pest or weed control at 70 g/ha,[2]; [14],0 to 29%
same,pest or weed control at 140 g/ha,[2]; [14],0 to 29%
